According to PubChem BioAssay AID248 (DTP/NCI, 2004):
Toxic doses and inconclusive results are not listed. No stated cut-off is given here; in the data, active means T/C of 150% or more; inactive means T/C below 125%.

Test system: L1210 leukemia ip in BDF1 mice, survival T/C
Test: NCI In Vivo Anticancer Drug Screen. Data for tumor model L1210 Leukemia (intraperitoneal) in B6D2F1 (BDF1) mice
Conditions: endpoint: mean survival time, higher = longer survival
Outline: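 Each compound was tested against a transplantable tumor grown in mice. The endpoint was survival, with treated animals benchmarked against vehicle controls as a simple ratio.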

[1] = dose: 100.0 mg/kg/injection, schedule: Q01DX009 (ip), vehicle: Klucel (hydroxypropylcellulose) (HPC)
[2] = dose: 100.0 mg/kg/injection, schedule: Q04DX003 (ip), vehicle: Klucel (hydroxypropylcellulose) (HPC)
[3] = dose: 200.0 mg/kg/injection, schedule: Q01DX009 (ip), vehicle: Klucel (hydroxypropylcellulose) (HPC)
[4] = dose: 200.0 mg/kg/injection, schedule: Q04DX003 (ip), vehicle: Klucel (hydroxypropylcellulose) (HPC)
[5] = dose: 400.0 mg/kg/injection, schedule: Q04DX003 (ip), vehicle: Klucel (hydroxypropylcellulose) (HPC)
[6] = dose: 100.0 mg/kg/injection, schedule: Q04DX003 (ip), vehicle: saline

Measured: T/C

O=C1OC(c2ccc([N+](=O)[O-])cc2)=N/C1=C\c1ccc2c(c1)OCO2
inactive: dose: 100.0 mg/kg/injection, schedule: Q04DX002 (ip), vehicle: saline with Tween-80 92 % of control | dose: 400.0 mg/kg/injection, schedule: Q04DX002 (ip), vehicle: saline with Tween-80 87 % of control

C#CCCCCCCCCCC(=O)OC
inactive: [1] 102 % of control | [2] 103 % of control | [3] 102 % of control | [4] 95 % of control | dose: 400.0 mg/kg/injection, schedule: Q01DX009 (ip), vehicle: Klucel (hydroxypropylcellulose) (HPC) 104 % of control | [5] 98 % of control

O=c1c2ncn(C3OC(CO)C(O)C3O)c2nc2nc[nH]n12 (stereo not given)
inactive: dose: 100.0 mg/kg/injection, schedule: Q01DX005 (ip), vehicle: saline 93 % of control | dose: 200.0 mg/kg/injection, schedule: Q01DX005 (ip), vehicle: saline 98 % of control

CN(C)CCN(CC(=O)O)CC(=O)O
inactive: dose: 100.0 mg/kg/injection, schedule: Q01DX001 (ip), vehicle: saline 100 % of control | dose: 200.0 mg/kg/injection, schedule: Q01DX001 (ip), vehicle: saline 102 % of control | dose: 400.0 mg/kg/injection, schedule: Q01DX001 (ip), vehicle: saline 100 % of control

CCCCCCCCCCCCCCCC(=O)OCCCCCCCCCCCCC
inactive: dose: 100.0 mg/kg/injection, schedule: Q04DX003 (ip), vehicle: saline with Tween-80 95 % of control | dose: 200.0 mg/kg/injection, schedule: Q04DX003 (ip), vehicle: saline with Tween-80 90 % of control | dose: 400.0 mg/kg/injection, schedule: Q04DX003 (ip), vehicle: saline with Tween-80 86 % of control

Cc1nn(-c2ccc(Cl)cc2)c(C)c1N=O
inactive: dose: 25.0 mg/kg/injection, schedule: Q01DX001 (ip), vehicle: saline with Tween-80 98 % of control | dose: 50.0 mg/kg/injection, schedule: Q01DX001 (ip), vehicle: saline with Tween-80 95 % of control | dose: 100.0 mg/kg/injection, schedule: Q01DX001 (ip), vehicle: saline with Tween-80 104 % of control

CC(C)(CO)NCc1ccc(Cl)c(Cl)c1
inactive: [1] 98 % of control | [6] 106 % of control | [3] 102 % of control | dose: 200.0 mg/kg/injection, schedule: Q04DX003 (ip), vehicle: saline 97 % of control | dose: 400.0 mg/kg/injection, schedule: Q04DX003 (ip), vehicle: saline 97 % of control

Nc1c[nH]c(=S)s1
inactive: dose: 100.0 mg/kg/injection, schedule: Q01DX001 (ip), vehicle: Klucel (hydroxypropylcellulose) (HPC) 94 % of control | dose: 200.0 mg/kg/injection, schedule: Q01DX001 (ip), vehicle: Klucel (hydroxypropylcellulose) (HPC) 99 % of control

CC(=O)NCCCCNS(=O)(=O)c1ccc(C)cc1
inactive: [2] 95 % of control | [4] 95 % of control | [5] 93 % of control

CCN(CC)CCOc1ccc(/C=C2\CCc3ccccc3C2=O)cc1
inactive: dose: 25.0 mg/kg/injection, schedule: Q01DX007 (ip), vehicle: saline 104 % of control | dose: 50.0 mg/kg/injection, schedule: Q01DX007 (ip), vehicle: saline 102 % of control | dose: 50.0 mg/kg/injection, schedule: Q04DX003 (ip), vehicle: saline 95 % of control | dose: 100.0 mg/kg/injection, schedule: Q01DX007 (ip), vehicle: saline 96 % of control | [6] 95 % of control

NC(=O)NCCC(=O)O
inactive: dose: 100.0 mg/kg/injection, schedule: Q04DX002 (ip), vehicle: saline 115 % of control | dose: 200.0 mg/kg/injection, schedule: Q04DX002 (ip), vehicle: saline 112 % of control | dose: 400.0 mg/kg/injection, schedule: Q04DX002 (ip), vehicle: saline 101 % of control

O=C(Nc1cccc(C(F)(F)F)c1)OCCOc1ccc(Cl)cc1
inactive: dose: 100.0 mg/kg/injection, schedule: Q04DX002 (ip), vehicle: Klucel (hydroxypropylcellulose) (HPC) 89 % of control | dose: 200.0 mg/kg/injection, schedule: Q04DX002 (ip), vehicle: Klucel (hydroxypropylcellulose) (HPC) 96 % of control | dose: 400.0 mg/kg/injection, schedule: Q04DX002 (ip), vehicle: Klucel (hydroxypropylcellulose) (HPC) 101 % of control

c1cn[nH]c1
inactive: dose: 50.0 mg/kg/injection, schedule: Q01DX001 (ip), vehicle: carboxymethylcellulose (CMC) 96 % of control | dose: 100.0 mg/kg/injection, schedule: Q01DX001 (ip), vehicle: carboxymethylcellulose (CMC) 100 % of control | dose: 200.0 mg/kg/injection, schedule: Q01DX001 (ip), vehicle: carboxymethylcellulose (CMC) 96 % of control

CC(C)(C)OC(=O)CCN1CC1
inactive: dose: 75.0 mg/kg/injection, schedule: Q01DX001 (ip), vehicle: saline 109 % of control | dose: 150.0 mg/kg/injection, schedule: Q01DX001 (ip), vehicle: saline 104 % of control
